{"source": "patent US6488917B2", "about": "“Optical brighteners as bleaching agents” (L'Oreal, priority 1998, dated 2002)", "origin": "cited, not measured here", "system": "melanocytes", "conditions": "known from the prior art"}
{"smiles": "Oc1ccc(O)cc1", "note": "[hydroquinone]", "values": [{"measurement": "cytotoxicity towards melanocytes", "result": "known for its cytotoxicity towards melanocytes"}]}
